In patent publication US20110190192A1, “METHODS FOR TREATING ERECTILE DYSFUNCTION IN PATIENTS WITH INSULIN-DEPENDENT DIABETES” (Cebix Inc., priority 2009, published 2011):

Key:
[1] = C-peptide concentrations in plasma (time-resolved fluoroimmunoassay); conditions: dose ranges of the study; very small patient number
Experimental: Blood samples for determination of C-peptide in plasma were drawn at the S/B visit, visit 2, and at end of study (visit 4).
The sampling of C-peptide in plasma at visits 2 and 4 coincided with the clinical visit and the time between the most recent administration of the trial drug and sampling varied between patients.
C-peptide plasma levels were measured at baseline, and after 3 and 6 months of treatment. Analysis was performed by the Department of Clinical Chemistry Karolinska University Hospital, Solna using a time-resolved fluoroimmunoassay (AutoDelfia, Wallac Oy, Turku, Finland).
C-peptide plasma levels were also measured pre-dosing in the morning in 22 randomly selected patients at the Karolinska Hospital after 4.5 months of study treatment (visit 3).

[2] = system: type 1 diabetes patients with peripheral neuropathy; conditions: in vivo
Source text: (§1) The safety measurements comprised collection of AEs, spontaneously reported by the patient or recorded by the investigator at each clinical visit.
(§2) An AE was classified as “unexpected event” (i.e., if not specifically listed in the Investigator's Brochure) in terms of nature, severity, or frequency. All AEs, including intercurrent illnesses and increased severity or frequency of sign/symptoms of a concomitant disease was reported and documented as described below. AEs were documented on an “Adverse Event/Serious Adverse Event” page of the CRF and in the patient's medical records. Any AE occurring at any time after the end of the study, considered to be caused by the study medication—and therefore a possible adverse drug reaction—was reported to the sponsor.
(§3) Hypoglycemic events are common events in insulin-treated patients. For practical reasons only severe hypoglycemic events, i.e., if the patient required assistance from another person in order to regain normoglycaemia, were reported as an AE.
(§4) The period of observation for AEs extended from the time the patient started on trial medication until end of the study. AEs were divided into the categories “serious” and “non-serious”. This determined the procedure used to report/document the AE.
(§5) Descriptive statistics were used for safety variables. […] The safety analysis set included all patients who obtained at least one dose of the investigational drug. AEs were coded according to the MedDRA dictionary. The frequencies of AEs are tabulated by body system and included/preferred term.

[3] = system: type 1 diabetes patients with peripheral neuropathy; assay: Adverse events
Source text: as §1, §2, §3, §4, §5

[4] = system: type 1 diabetes patients with peripheral neuropathy; assay: ECG and vital signs; assay type: in vivo, human; conditions: for BPd (diastolic blood pressure) change, mean ± SD / BPd (diastolic blood pressure) change, median / BPs (systolic blood pressure) change, mean ± SD / BPs (systolic blood pressure) change, median / Heart rate change, mean ± SD / Heart rate change, median / QTc-interval Bazett change, mean ± SD / QTc-interval Bazett change, median / QTc-interval Fredericia change, mean ± SD / QTc-interval Fredericia change, median: baseline to 6 months (visit 4), PP data set
Experimental: ECG was performed at baseline and at end of study, i.e., visit 4 (at 6 months±2 weeks from the S/B visit).

[5] = high-dose C-peptide, treatment emergent, any severity, PP data set
[6] = low-dose C-peptide, treatment emergent, any severity, PP data set

## CC(C)C[C@H](NC(=O)[C@H](C)NC(=O)[C@H](CC(C)C)NC(=O)[C@@H]1CCCN1C(=O)[C@H](CCC(N)=O)NC(=O)[C@H](CC(C)C)NC(=O)[C@H](CO)NC(=O)CNC(=O)[C@H](C)NC(=O)CNC(=O)[C@@H]1CCCN1C(=O)CNC(=O)CNC(=O)CNC(=O)[C@H](CC(C)C)NC(=O)[C@H](CCC(=O)O)NC(=O)[C@@H](NC(=O)[C@H](CCC(N)=O)NC(=O)CNC(=O)[C@@H](NC(=O)[C@H](CCC(N)=O)NC(=O)[C@H](CC(C)C)NC(=O)[C@H](CC(=O)O)NC(=O)[C@H](CCC(=O)O)NC(=O)[C@H](C)NC(=O)[C@@H](N)CCC(=O)O)C(C)C)C(C)C)C(=O)N[C@@H](CCC(=O)O)C(=O)NCC(=O)N[C@@H](CO)C(=O)N[C@@H](CC(C)C)C(=O)N[C@@H](CCC(N)=O)C(=O)O [C-peptide, Recombinant human C-peptide]
[1]
  Accumulation following repeated dosing: no significant accumulation
[2]
  Acute HIV infection, AE intensity (number of AE incidences): M (1)
  Herpes zoster, AE intensity (number of AE incidences): M (1)
[3]; 500-1,500 nmoL/24 h, 6 months
  Adverse drug reactions or significant changes in safety variables (blood chemistries and vital signs): no adverse drug reactions or significant changes in safety variables
[3]; S.C. injection, 6 months
  Local reactions: No local reactions were reported
[3]; all groups
  Deaths during the study: No deaths
[3]; high-dose C-peptide (1,500 nmoL/24 h)
  Serious adverse events (SAEs): Two
[3]; high-dose C-peptide, investigators' assessment
  Relationship of the SAEs to the trial medication: unlikely/not related
[3]; [5]
  Dizziness (SOC Injury poisoning, procedural complications), number of AEs: 1
  Hyperaesthesia, number of AEs: 1
  Hyperaesthesia, number of AEs probably/possibly related to study drug: (1)
  Hypoglycemia, number of AEs probably/possibly related to study drug: (1)
  Injection site burning, number of AEs: 1
  Injection site burning, number of AEs probably/possibly related to study drug: (1)
  Pain in extremity (SOC Musculoskeletal and connective tissue disorder), number of AEs: 4
  Paraesthesia, number of AEs probably/possibly related to study drug: (2)
  Skin infection (SOC Infections and infestations), number of AEs: 1
  Skin infection (SOC Skin and subcutaneous tissue disorders), number of AEs: 2
  Tendosynovitis stenosans, number of AEs: 1
  Total number of AEs: 156
  Total number of AEs probably/possibly related to study drug: (5)
[3]; high-dose group
  AEs of moderate intensity: 43 AEs
  AEs of severe intensity: 9 AEs
  AEs reported as possible/probable related to the study drug: 5 AEs
[3]; high-dose group, n=52, ITT
  Number of AEs reported: 154 AEs
[3]; high-dose group, out of 52
  Patients with AEs: 44 patients
[3]; [6]
  Cardiac arrhythmia (SVES), number of AEs: 1
  Dizziness (SOC Nervous system disorders), number of AEs: 2
  Elevated serum creatinine, number of AEs: 1
  Hepatic enzyme increase, number of AEs probably/possibly related to study drug: (1)
  Hyperglycemia, number of AEs probably/possibly related to study drug: (1)
  Hyperthermeasthesia, number of AEs: 2
  Hyperthermeasthesia, number of AEs probably/possibly related to study drug: (2)
  Hypoglycemia, number of AEs probably/possibly related to study drug: (1)
  Insulin sensitivity increased, number of AEs: 1
  Insulin sensitivity increased, number of AEs probably/possibly related to study drug: (1)
  Musculoskeletal chest pain, number of AEs: 1
  Pain in extremity (SOC Musculoskeletal and connective tissue disorder), number of AEs: 3
  Pain in extremity (SOC Musculoskeletal and connective tissue disorder), number of AEs probably/possibly related to study drug: (1)
  Paraesthesia, number of AEs probably/possibly related to study drug: (1)
  Skin infection (SOC Infections and infestations), number of AEs: 5
  Tachycardia (stress related), number of AEs: 1
  Total number of AEs: 173
  Total number of AEs probably/possibly related to study drug: (8)
[3]; low-dose group
  AEs of moderate intensity: 51 AEs
  AEs of severe intensity: 1 AEs
  AEs reported as possible/probable related to the study drug: 8 AEs
[3]; low-dose group, n=56, ITT
  Number of AEs reported: 173 AEs
[3]; low-dose group, out of 56
  Patients with AEs: 48 patients
[4]; 6 months, p<0.004, not statistically different from placebo
  Decrease in systolic blood pressure, high-dose vs low-dose group: significantly greater decrease
[4]; high-dose C-peptide
  BPd (diastolic blood pressure) change, mean ± SD: −2.6 ± 8.0 mmHg
  BPd (diastolic blood pressure) change, median: −1.0 mmHg
  BPs (systolic blood pressure) change, mean ± SD: −8.8 ± 10.0 mmHg
  BPs (systolic blood pressure) change, median: −8.0 mmHg
  Heart rate change, mean ± SD: −3.2 ± 10.0 bpm
  Heart rate change, median: −4.0 bpm
  QTc-interval Bazett change, mean ± SD: -4.5 ± 20.3 ms
  QTc-interval Bazett change, median: 0.0 ms
  QTc-interval Fredericia change, mean ± SD: -0.5 ± 16.2 ms
  QTc-interval Fredericia change, median: 0.0 ms
[4]; low-dose C-peptide
  BPd (diastolic blood pressure) change, mean ± SD: −2.7 ± 8.2 mmHg
  BPd (diastolic blood pressure) change, median: −1.0 mmHg
  BPs (systolic blood pressure) change, mean ± SD: −2.1 ± 12.8 mmHg
  BPs (systolic blood pressure) change, median: −1.0 mmHg
  Heart rate change, mean ± SD: −0.9 ± 8.2 bpm
  Heart rate change, median: −2.0 bpm
  QTc-interval Bazett change, mean ± SD: -0.1 ± 17.5 ms
  QTc-interval Bazett change, median: 0.0 ms
  QTc-interval Fredericia change, mean ± SD: 0.9 ± 14.1 ms
  QTc-interval Fredericia change, median: 1.3 ms
